From patent publication US20060014790A1, “Methods of treatment of amyloidosis using spirocyclohexane aspartyl-protease inhibitors” (priority 2004, published 2006)
Several values for one entry are separate records, joined by “and”; a condition that tells them apart may be missing. Identical values can stand only once.

Each compound was assayed against catD / beta-secretase (BACE) (assay: CatD/BACE selectivity (ratio of IC50 values)). Settings: each value is an average of four experimental runs; multiple values = more than one experiment.
Format: biochemical
Description: Selectivity was calculated as a ratio of inhibition (IC50) values in which the inhibition of beta-secretase was compared to the inhibition of other aspartyl proteases.
In the following examples, each value is an average of four experimental runs and multiple values for one compound indicate that more than one experiment was conducted.
For `CONC1CCC(NCC(O)C(Cc2cc(F)cc(F)c2)NC(C)=O)(c2cccc(C(C)(C)C)c2)CC1` (single isomer, unassigned) [196A-20 Diastereomer A, N-(4-(1-(3-tert-butylphenyl)-4-(methoxyamino)cyclohexylamino)-1-(3,5-difluorophenyl)-3-hydroxybutan-2-yl)acetamide], the “IC50 catD/IC50 BACE” value was 5.0. For `CONC1CCC(NCC(O)C(Cc2cc(F)cc(F)c2)NC(C)=O)(c2cccc(C(C)(C)C)c2)CC1` (single isomer, unassigned) [196A-21 Diastereomer B, N-(4-(1-(3-tert-butylphenyl)-4-(methoxyamino)cyclohexylamino)-1-(3,5-difluorophenyl)-3-hydroxybutan-2-yl)acetamide], the “IC50 catD/IC50 BACE” value was 12.3. With `CNC1CCC(NCC(O)C(Cc2cc(F)cc(F)c2)NC(C)=O)(c2cccc(C(C)(C)C)c2)CC1` (single isomer, unassigned) [196A-26 Diastereomer A, N-(4-(1-(3-tert-butylphenyl)-4-(methylamino)cyclohexylamino)-1-(3,5-difluorophenyl)-3-hydroxybutan-2-yl)acetamide] the “IC50 catD/IC50 BACE” value was over 4.7. For `CNC1CCC(NCC(O)C(Cc2cc(F)cc(F)c2)NC(C)=O)(c2cccc(C(C)(C)C)c2)CC1` (single isomer, unassigned) [196A-28 Diastereomer B, N-(4-(1-(3-tert-butylphenyl)-4-(methylamino)cyclohexylamino)-1-(3,5-difluorophenyl)-3-hydroxybutan-2-yl)acetamide], the “IC50 catD/IC50 BACE” value was over 3.9. For `CC(=O)NC(Cc1cc(F)cc(F)c1)C(O)CNC1(c2cccc(C(C)(C)C)c2)CCC(N)CC1` (single isomer, unassigned) [196A-29 Diastereomer A, N-(4-(1-(3-tert-butylphenyl)-4-aminocyclohexylamino)-1-(3,5-difluorophenyl)-3-hydroxybutan-2-yl)acetamide], the “IC50 catD/IC50 BACE” value was over 8.4. In the case of `CC(=O)NC(Cc1cc(F)cc(F)c1)C(O)CNC1(c2cccc(C(C)(C)C)c2)CCC(N)CC1` (single isomer, unassigned) [196A-30 Diastereomer B, N-(4-(1-(3-tert-butylphenyl)-4-aminocyclohexylamino)-1-(3,5-difluorophenyl)-3-hydroxybutan-2-yl)acetamide], the “IC50 catD/IC50 BACE” value was over 8.4. For `CC(=O)NC(Cc1cc(F)cc(F)c1)C(O)CNC1(c2cccc(C(C)(C)C)c2)CCC(C(F)(F)F)CC1` (single isomer, unassigned) [196A-32 Diastereomer A, N-(4-(1-(3-tert-butylphenyl)-4-(trifluoromethyl)cyclohexylamino)-1-(3,5-difluorophenyl)-3-hydroxybutan-2-yl)acetamide], the “IC50 catD/IC50 BACE” value was 1.7. For `CC(=O)NC1CCC(NCC(O)C(Cc2cc(F)cc(F)c2)NC(C)=O)(c2cccc(C(C)(C)C)c2)CC1` (single isomer, unassigned) [196A-33 Diastereomer A, N-[3-[4-Acetylamino-1-(3-tert-butyl-phenyl)-cyclohexylamino]-1-(3,5-difluoro-benzyl)-2-hydroxy-propyl]-acetamide], the “IC50 catD/IC50 BACE” value was 34.4. With `CC(=O)NC(Cc1cc(F)cc(F)c1)C(O)CNC1(c2cccc(C(C)(C)C)c2)CCC(O)(CO)CC1` (single isomer, unassigned) [196A-35 Diastereomer A, N-[3-[1-(3-tert-Butyl-phenyl)-4-hydroxy-4-hydroxymethyl-cyclohexylamino]-1-(3,5-difluoro-benzyl)-2-hydroxy-propyl]-acetamide] the “IC50 catD/IC50 BACE” value was over 7.4. `CC(=O)NC(Cc1cc(F)cc(F)c1)C(O)CNC1(c2cccc(C(C)(C)C)c2)CCC(O)(CO)CC1` (single isomer, unassigned) [196A-36 Diastereomer B, N-[3-[1-(3-tert-Butyl-phenyl)-4-hydroxy-4-hydroxymethyl-cyclohexylamino]-1-(3,5-difluoro-benzyl)-2-hydroxy-propyl]-acetamide] was tested, and the “IC50 catD/IC50 BACE” value was over 5.3. `COC(=O)NC1CCC(NCC(O)C(Cc2cc(F)cc(F)c2)NC(C)=O)(c2cccc(C(C)(C)C)c2)CC1` (single isomer, unassigned) [196A-37 Diastereomer A, methyl 4-(3-acetamido-4-(3,5-difluorophenyl)-2-hydroxybutylamino)-4-(3-tert-butylphenyl)cyclohexylcarbamate] was tested, and the “IC50 catD/IC50 BACE” value was 7.7. `COC(=O)NC1CCC(NCC(O)C(Cc2cc(F)cc(F)c2)NC(C)=O)(c2cccc(C(C)(C)C)c2)CC1` (single isomer, unassigned) [196A-38 Diastereomer B, methyl 4-(3-acetamido-4-(3,5-difluorophenyl)-2-hydroxybutylamino)-4-(3-tert-butylphenyl)cyclohexylcarbamate] was tested, and the “IC50 catD/IC50 BACE” value was 2.6 and 2.0 and 2.3. With `CC(=O)NC(Cc1cc(F)cc(F)c1)C(O)CNC1(c2cccc(C(C)(C)C)c2)CCC(N(O)C(C)=O)CC1` (single isomer, unassigned) [196A-39 Diastereomer A] the “IC50 catD/IC50 BACE” value was 9.6. With `CC(=O)NC(Cc1cc(F)cc(F)c1)C(O)CNC1(c2cccc(C(C)(C)C)c2)CCC(NS(C)(=O)=O)CC1` (single isomer, unassigned) [196A-41 Diastereomer A, N-(4-(1-(3-tert-butylphenyl)-4-(methylsulfonamido)cyclohexylamino)-1-(3,5-difluorophenyl)-3-hydroxybutan-2-yl)acetamide] the “IC50 catD/IC50 BACE” value was 18.1. In the case of `CC(=O)NC(Cc1cc(F)cc(F)c1)C(O)CNC1(c2cccc(C(C)(C)C)c2)CCC(NS(C)(=O)=O)CC1` (single isomer, unassigned) [196A-42 Diastereomer B, N-(4-(1-(3-tert-butylphenyl)-4-(methylsulfonamido)cyclohexylamino)-1-(3,5-difluorophenyl)-3-hydroxybutan-2-yl)acetamide], the “IC50 catD/IC50 BACE” value was over 3.0. With `CC(=O)NC(Cc1cc(F)cc(F)c1)C(O)CNC1(c2cccc(C(C)(C)C)c2)CCC(NC=O)CC1` (single isomer, unassigned) [196A-43 Diastereomer A, N-(4-(1-(3-tert-butylphenyl)-4-formamidocyclohexylamino)-1-(3,5-difluorophenyl)-3-hydroxybutan-2-yl)acetamide] the “IC50 catD/IC50 BACE” value was 84.5. `CNC(=O)NC1CCC(NCC(O)C(Cc2cc(F)cc(F)c2)NC(C)=O)(c2cccc(C(C)(C)C)c2)CC1` (single isomer, unassigned) [196A-45 Diastereomer A, 1-(4-(3-acetamido-4-(3,5-difluorophenyl)-2-hydroxybutylamino)-4-(3-tert-butylphenyl)cyolohexyl)-3-methylurea] was tested, and the “IC50 catD/IC50 BACE” value was over 3.5. `CNC(=O)NC1CCC(NCC(O)C(Cc2cc(F)cc(F)c2)NC(C)=O)(c2cccc(C(C)(C)C)c2)CC1` (single isomer, unassigned) [196A-46 Diastereomer B, 1-(4-(3-acetamido-4-(3,5-difluorophenyl)-2-hydroxybutylamino)-4-(3-tert-butylphenyl)cyclohexyl)-3-methylurea] was tested, and the “IC50 catD/IC50 BACE” value was over 1.3. With `CC(=O)NC(Cc1cc(F)cc(F)c1)C(O)CNC1(c2cccc(C(C)(C)C)c2)CCC([S+](C)[O-])CC1` (stereo not shown) [196A-34 Mix, N-(4-(1-(3-tert-butylphenyl)-4-(methylsulfinyl)cyclohexylamino)-1-(3,5-difluorophenyl)-3-hydroxybutan-2yl)acetamide] the “IC50 catD/IC50 BACE” value was 2.1.
